# Test results reported in patent publication US20130149392A1, “METHOD OF TREATING NON-SMALL CELL LUNG CANCER WITH BIS-(THIOHYDRAZIDE)AMIDE COMPOUNDS” (SYNTA PHARMACEUTICALS CORP., priority 2011, published 2013).
# System: Stage IIIB or Stage IV Non-Small Cell Lung Cancer (NSCLC)
# Assay: Phase 2 clinical trial of Compound (1) (STA-4783, elesclomol) with paclitaxel and carboplatin vs paclitaxel and carboplatin; PFS and OS by baseline LDH
# Type: in vivo, human
# Procedure: A Phase 2 Clinical Trial of Compound (1), or STA-4783 (elesclomol) in combination with paclitaxel and carboplatin for the treatment of chemotherapy naive patients with Stage IIIB or Stage IV Non-Small Cell Lung Cancer (NSCLC) was performed. It was a multicenter, randomized, double-blinded, 2-arm study evaluating the recommended Phase 2 dose of STA-4783 (elesclomol) and paclitaxel and AUC=6 mg·min/mL carboplatin as compared with the recommended Phase 2 dose of paclitaxel and AUC=6 mg·min/mL carboplatin.
# Both progression-free survival (PFS) and overall survival (OS) were improved in the low baseline LDH (≦0.8 ULN) population (where ULN is Upper Limit of Normal, which in at least one laboratory was 234 units/L, significant deviation from which was low).
# Table 1 presents PFS outcomes for ITT (Intent To Treat) population patients with high, normal and low baseline LDH levels. […] In patients with low baseline LDH levels, PFS was improved for treatment, with a median of 4.6 vs. 3.1 months (HR=0.88), where HR mean Hazard Ratio. In patients with normal baseline LDH, median PFS is similar for treatment and control arms (3.3 and 4.0 months, respectively), with a HR of 1.17. In patients with high baseline LDH, median PFS was 2.8 and 6.3 months for treatment and control arms, respectively (HR=[…])
# Table 2 presents a summary of the OS analyses for the ITT population with high, normal and low baseline LDH levels. In patients with low baseline LDH levels, OS was improved for treatment, with a median of 10.7 vs. 8.5 months (HR=0.74). In patients with normal baseline LDH, median OS is similar for treatment and control arms (8.4 and 8.4 months, respectively), with a HR of 0.91. In patients with high baseline LDH, median […] was 5 and 10 months for treatment and control arms, respectively (HR=1.64)
# [1] = elevated LDH (>1 ULN) population
# [2] = low baseline LDH (≦0.8 ULN) population
smiles,measurement,setting,value
"CN(NC(=O)CC(=O)NN(C)C(=S)c1ccccc1)C(=S)c1ccccc1 [Compound (1), elesclomol]","overall survival (OS), result in words",[1],negative impact
same,"progression-free survival (PFS), result in words",[1],negative impact
same,"overall survival (OS), result in words",[2],improved
same,"progression-free survival (PFS), result in words",[2],improved
